Columns and labels:
[1] = test system: caspase-3/7 activity in HT29 cells; assay: Caspase 3/7 activity assay; assay type: cell-based, human; conditions: HT29, 1.25 – 5 µM, 24 h
[2] = test system: Akt (phospho-Akt and total Akt) in HT29 cells; assay: Western analysis of phospho-Akt and total Akt; assay type: cell-based, human; conditions: 24 h, Western blot; for effect on Akt expression and phosphorylation, 1 µM: HT29, 1 µM; for effect on Akt expression and phosphorylation: HT29, 1 or 2 µM (not specified)
HT29 cells = assay: TUNEL assay; assay type: cell-based, human; conditions: HT29, 5 µM, 48 h
[3] = test system: purified bovine brain tubulin; assay: Fluorescence-based tubulin polymerization assay; assay type: biochemical; conditions: 10 µM, cell-free

SMILES | caspase-3/7 activity relative to DMSO vehicle treated cells [1] | effect on Akt expression and phosphorylation, 1 µM [2] | effect on Akt expression and phosphorylation, 2 µM ([2]; HT29, 2 µM) | TUNEL staining (DNA fragmentation) (HT29 cells) | inhibition of the rate of microtubule polymerization ([3]; 1 h at 37 °C) | effect on Akt expression and phosphorylation [2] | effect on microtubule formation versus vehicle control [3]
N#C[Se]CCCN1C(=O)C(=O)c2cc(Br)cc(Br)c21 [Compound 5, 5,7-Dibromo-N-(3’-selenocyanatopropyl)isatin] | significant dose dependent increases in caspase-3/7 activity |  |  |  |  |  | 
O=C1C(=O)N(CCCN=C=S)c2c(Br)cc(Br)cc21 [Compound 6, 5,7-Dibromo-N-(3’-isothiocyanatopropyl)isatin] | significant dose dependent increases in caspase-3/7 activity | very little effect on either expression or phosphorylation of Akt | both levels and phosphorylation state of Akt were reduced | significant number of TUNEL-positive colon cancer cells |  |  | 
N#CSCc1ccc(CN2C(=O)C(=O)c3cc(Br)cc(Br)c32)cc1 [Compound 11, 5,7-Dibromo-N-(p-thiocyanomethylbenzyl)isatin] | significant dose dependent increases in caspase-3/7 activity | reduced Akt protein levels and strongly suppressed the phosphorylation of Akt |  | significant number of TUNEL-positive colon cancer cells | about 71% | Akt levels were reduced but the phosphorylation was virtually eliminated | 
O=C1C(=O)N(Cc2ccc(CN=C=S)cc2)c2c(Br)cc(Br)cc21 [Compound 13, 5,7-Dibromo-N-(p-isothiocyanatomethylbenzyl)isatin] | significant dose dependent increases in caspase-3/7 activity | reduced Akt protein levels and strongly suppressed the phosphorylation of Akt |  |  |  | Akt levels were reduced but the phosphorylation was virtually eliminated | 
CC[C@]1(O)C[C@@H]2CN(CCc3c([nH]c4ccccc34)[C@@](C(=O)OC)(c3cc4c(cc3OC)N(C)[C@H]3[C@@](O)(C(=O)OC)[C@H](OC(C)=O)[C@]5(CC)C=CCN6CC[C@]43[C@@H]65)C2)C1.O=S(=O)(O)O [Vinblastine, vinblastine sulfate] |  |  |  |  |  |  | strongly inhibited microtubule formation
CC(=O)O[C@H]1C(=O)[C@@]2(C)[C@H]([C@H](OC(=O)c3ccccc3)[C@]3(O)C[C@H](OC(=O)[C@H](O)[C@@H](NC(=O)c4ccccc4)c4ccccc4)C(C)=C1C3(C)C)[C@]1(OC(C)=O)CO[C@@H]1C[C@@H]2O [paclitaxel] |  |  |  |  |  |  | stabilized microtubules
